Legend:
[1] = molecular target: T1, Polyunsaturated fatty acid 5-lipoxygenase (Rattus norvegicus) (UniProt P12527); assay: Inhibition of rat 5-lipoxygenase in rat RBL1 cells at 30 uM; format: cell-based; settings: RBL-1
T1 sequence (whole entry): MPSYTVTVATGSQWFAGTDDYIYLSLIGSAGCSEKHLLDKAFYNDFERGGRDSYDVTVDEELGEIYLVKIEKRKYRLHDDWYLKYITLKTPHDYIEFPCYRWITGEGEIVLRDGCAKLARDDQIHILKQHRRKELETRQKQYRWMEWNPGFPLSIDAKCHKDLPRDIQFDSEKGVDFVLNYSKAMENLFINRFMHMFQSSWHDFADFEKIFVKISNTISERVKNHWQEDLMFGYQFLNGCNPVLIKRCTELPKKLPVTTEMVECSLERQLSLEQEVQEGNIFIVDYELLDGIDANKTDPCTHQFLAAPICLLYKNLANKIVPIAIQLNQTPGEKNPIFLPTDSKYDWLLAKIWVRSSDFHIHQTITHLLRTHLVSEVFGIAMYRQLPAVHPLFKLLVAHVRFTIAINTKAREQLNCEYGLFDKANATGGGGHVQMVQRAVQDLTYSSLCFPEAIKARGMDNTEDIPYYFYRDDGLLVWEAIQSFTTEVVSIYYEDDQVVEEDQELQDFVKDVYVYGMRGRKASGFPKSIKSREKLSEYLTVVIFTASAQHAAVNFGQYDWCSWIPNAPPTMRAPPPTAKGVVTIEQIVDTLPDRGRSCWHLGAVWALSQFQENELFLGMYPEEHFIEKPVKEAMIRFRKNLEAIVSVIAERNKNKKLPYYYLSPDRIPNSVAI

[2] = molecular target: T1, Polyunsaturated fatty acid 5-lipoxygenase (Rattus norvegicus); settings: RBL-1, 15 uM
Description: Inhibition of rat 5-lipoxygenase in rat RBL1 cells at 15 uM

inhibition [1] [%] | inhibition [2] [%] | Compound
64 | – | COC(=O)c1ccc(O)c(Oc2cc(C(=O)OC)ccc2O)c1
– | 50 | O=C1CCN(c2ccccc2)N1

— ChEMBL document CHEMBL1148062, “Cylindol A, a novel biphenyl ether with 5-lipoxygenase inhibitory activity, and a related compound from Imperata Cylindrica” (J Nat Prod, 1994)
